The text below walks through data of DBAASP.

Some test systems named below: Escherichia coli SBS 363; Candida albicans MDM8; Micrococcus luteus A270; Escherichia coli; Listeria innocua.
Holding throughout (test): ≥ marks a high value that may be exact or a test limit, other limits are often not marked, values filed in µg/mL are converted to µM
Assay [1] concerns Acinetobacter baumannii ATCC 7978.
Assay [2] relates to Candida albicans ATCC 10231.
Assay [3] concerns Staphylococcus aureus ATCC 29231.
Assay [4] relates to Klebsiella aerogenes ATCC 13048.
In assay [5] the test system is Staphylococcus aureus MW2.
The subject of assay [6] is Staphylococcus aureus SH1000.
The subject of assay [7] is Escherichia coli DH5alpha.
The subject of assay [8] is Pseudomonas aeruginosa ATCC 27853.
Assay [9] has as its system Candida tropicalis IOC 4560.
Assay [10] concerns Serratia marcescens ATCC 4112.
For assay [11], the system named is Enterobacter cloacae beta-12.
Assay [12] relates to Bacillus subtilis ATCC 6633.
Assay [13] relates to Staphylococcus aureus ATCC 29213.
In assay [14] the test system is Bacillus megaterium ATCC 10778.
In assay [15] the test system is Salmonella enterica subsp. enterica serovar Enteritidis.
The test system of assay [16] is Klebsiella pneumoniae WGLW2.
Assay [17] deals with Pseudomonas aeruginosa H1001.
Assay [18] has as its system Salmonella enterica subsp. arizonae ATCC 13314.

In brackets after ≈: the same amount, converted by molar mass.

For `CC[C@H](C)[C@H](NC(=O)[C@H](CCCCN)NC(=O)[C@H](Cc1c[nH]c2ccccc12)NC(=O)[C@@H](N)CC(C)C)C(=O)NCC(=O)N[C@@H](Cc1c[nH]c2ccccc12)C(=O)N[C@@H](CCCCN)C(=O)N[C@H](C(=O)N[C@@H](Cc1c[nH]c2ccccc12)C(=O)N[C@@H](CCCN=C(N)N)C(=O)N[C@H](C(=O)NCC(=O)N[C@@H](Cc1c[nH]c2ccccc12)C(=O)N[C@@H](CC(N)=O)C(=O)N[C@@H](Cc1c[nH]c2ccccc12)C(=O)N[C@@H](CCCN=C(N)N)C(=O)O)C(C)C)[C@@H](C)CC` [LWKIGWKIWRVGWNWR], the MIC was 14.7 µM (≈ 32 µg/mL) in assay [1]; 29.3 µM (≈ 64 µg/mL) in assay [2]; 14.7 µM (≈ 32 µg/mL) in assay [3]; ≥ 58.6 µM in assay [4]; 14.7 µM (≈ 32 µg/mL) in [5].
As for `CC(C)C[C@H](NC(=O)CN)C(=O)N[C@@H](Cc1ccccc1)C(=O)N[C@@H](CC(=O)O)C(=O)N[C@@H](CC(C)C)C(=O)N[C@@H](CC(C)C)C(=O)N[C@@H](CCCCN)C(=O)N[C@@H](CCCCN)C(=O)N[C@@H](CC(C)C)C(=O)N[C@@H](CC(C)C)C(=O)N[C@@H](CCCCN)C(=O)N[C@@H](CC(C)C)C(=O)N[C@@H](CC(C)C)C(=O)N[C@@H](CCCCN)C(N)=O` [GLFDLLKKLLKLLK], the minimum inhibitory concentration (MIC) in assay [6] is ≥ 100 µM.
Consider `CC[C@H](C)[C@H](NC(=O)[C@H](C)NC(=O)[C@H](CCCCN)NC(=O)[C@@H](NC(=O)[C@H](CC(C)C)NC(=O)[C@H](CCCCN)NC(=O)[C@H](CCCCN)NC(=O)[C@@H](NC(=O)CNC(=O)[C@H](C)NC(=O)[C@H](Cc1ccccc1)NC(=O)[C@H](Cc1ccccc1)NC(=O)[C@H](CCCCN)NC(=O)CNC(=O)[C@@H](N)Cc1c[nH]c2ccccc12)C(C)C)[C@@H](C)O)C(=O)N[C@@H](CC(C)C)C(=O)NCC(=O)N[C@@H](CCC(=O)O)C(=O)N[C@H](C(=O)N[C@@H](C)C(N)=O)[C@@H](C)CC` [WGKFFAGVKKLTKAILGEIA], for which the MIC in assay [7] and in [6] was 3.16 µM (≈ 6.88 µg/mL) each time.
`CC[C@H](C)[C@H](NC(=O)[C@H](C)NC(=O)[C@H](CCCCN)NC(=O)[C@@H](NC(=O)[C@H](CC(C)C)NC(=O)[C@H](CCCCN)NC(=O)[C@H](CCCCN)NC(=O)[C@@H](NC(=O)CNC(=O)[C@H](C)NC(=O)[C@H](Cc1ccccc1)NC(=O)[C@H](Cc1ccccc1)NC(=O)[C@H](CCCCN)NC(=O)CNC(=O)[C@@H](N)Cc1c[nH]c2ccccc12)C(C)C)[C@@H](C)O)C(=O)N[C@@H](CC(C)C)C(=O)N[C@@H](C)C(=O)N[C@H](C(=O)N[C@@H](CCCN=C(N)N)C(=O)N[C@@H](C)C(N)=O)C(C)C` [WGKFFAGVKKLTKAILAVRA]: the MIC was found to be 10 µM (≈ 22 µg/mL) in assay [7] and 3.16 µM (≈ 6.97 µg/mL) in assay [6].
With `CC(C)C[C@H](NC(=O)[C@H](C)NC(=O)CNC(=O)[C@H](CC(C)C)NC(=O)[C@@H](N)Cc1ccccc1)C(=O)N[C@@H](Cc1c[nH]c2ccccc12)C(=O)N[C@@H](CC(N)=O)C(=O)N[C@H](C(=O)N[C@@H](C)C(=O)N[C@@H](CCCCN)C(=O)N[C@@H](CO)C(=O)N[C@@H](Cc1ccc(O)cc1)C(=O)N[C@@H](Cc1ccccc1)C(N)=O)C(C)C` [FLGALWNVAKSYF], the MIC in assay [8] was > 50 µM; in assay [9] it was 12.5 µM (≈ 18.9 µg/mL); in [10], 0.4 µM (≈ 0.606 µg/mL); in the assay on Escherichia coli SBS 363, 6.3 µM (≈ 9.54 µg/mL); in assay [11], ≥ 50 µM; against Candida albicans MDM8, ≥ 50 µM. Also, the MIC worked out at 1.6 µM (≈ 2.42 µg/mL) in assay [12], 3.1 µM (≈ 4.7 µg/mL) in assay [13], 3.1 µM (≈ 4.7 µg/mL) in assay [14] and 0.8 µM (≈ 1.21 µg/mL) against Micrococcus luteus A270.
For `CC(C)C[C@H](NC(=O)[C@@H](N)C(C)C)C(=O)N[C@@H](CO)C(=O)N[C@@H](C)C(=O)N[C@@H](C)C(=O)N[C@@H](CC(=O)O)C(=O)N[C@@H](CCCCN)C(=O)NCC(=O)N[C@@H](CC(N)=O)C(=O)N[C@H](C(=O)N[C@@H](CCCCN)C(=O)N[C@@H](C)C(=O)N[C@@H](C)C(=O)N[C@@H](Cc1c[nH]c2ccccc12)C(=O)NCC(=O)N[C@@H](CCCCN)C(=O)N[C@H](C(=O)NCC(=O)NCC(=O)N[C@@H](Cc1cnc[nH]1)C(=O)N[C@@H](C)C(=O)N[C@@H](C)C(=O)N[C@@H](CCC(=O)O)C(=O)N[C@@H](Cc1ccc(O)cc1)C(=O)NCC(=O)N[C@@H](C)C(=O)N[C@@H](CCC(=O)O)C(=O)N[C@@H](C)C(=O)O)C(C)C)C(C)C` [VLSAADKGNVKAAWGKVGGHAAEYGAEA], the MIC against Escherichia coli is 54 µM (≈ 147 µg/mL); in the assay with Listeria innocua, 27 µM (≈ 73.7 µg/mL); in assay [15], 27 µM (≈ 73.7 µg/mL); with Micrococcus luteus A270, ≥ 54 µM.
Regarding `CC(C)C[C@H](NC(=O)[C@H](C)NC(=O)[C@H](CC(N)=O)NC(=O)[C@H](C)NC(=O)[C@@H](NC(=O)CNC(=O)[C@H](C)NC(=O)[C@@H](NC(=O)[C@@H](NC(=O)[C@H](CCCCN)NC(=O)[C@H](CCC(N)=O)NC(=O)[C@H](Cc1ccccc1)NC(=O)[C@H](CC(=O)O)NC(=O)[C@H](C)NC(=O)[C@H](CCC(N)=O)NC(=O)[C@H](CC(C)C)NC(=O)[C@@H](NC(=O)[C@@H]1CCCN1C(=O)[C@@H](NC(=O)[C@@H](N)Cc1ccccc1)[C@@H](C)O)C(C)C)C(C)C)C(C)C)C(C)C)C(=O)N[C@@H](C)C(=O)N[C@@H](Cc1cnc[nH]1)C(=O)N[C@@H](CCCN=C(N)N)C(=O)N[C@@H](Cc1ccc(O)cc1)C(=O)N[C@@H](Cc1cnc[nH]1)C(=O)O` [FTPVLQADFQKVVAGVANALAHRYH], the minimum inhibitory concentration (MIC) against Escherichia coli is 73 µM (≈ 201 µg/mL); against Listeria innocua, ≥ 73 µM; in assay [15], ≥ 73 µM; against Micrococcus luteus A270 it was ≥ 85 µM.
`CC[C@H](C)[C@H](NC(=O)[C@H](Cc1c[nH]c2ccccc12)NC(=O)[C@H](CCCCN)NC(=O)[C@@H](N)CC(C)C)C(=O)NCC(=O)N[C@@H](CCCCN)C(=O)N[C@@H](Cc1c[nH]c2ccccc12)C(=O)N[C@H](C(=O)N[C@@H](Cc1c[nH]c2ccccc12)C(=O)N[C@@H](CCCN=C(N)N)C(=O)N[C@H](C(=O)NCC(=O)O)C(C)C)[C@@H](C)CC` [LKWIGKWIWRVG]: the MIC in assay [16] was ≥ 83 µM; in assay [1], ≥ 83 µM; in assay [3], ≥ 83 µM; in assay [5] it was ≥ 41.5 µM.
`CC[C@H](C)[C@H](NC(=O)[C@H](CCCN=C(N)N)NC(=O)[C@H](CCCCN)NC(=O)[C@@H]1CCCN1C(=O)[C@@H]1CCCN1C(=O)[C@H](CCCN=C(N)N)NC(=O)[C@@H]1CCCN1C(=O)[C@H](CCCN=C(N)N)NC(=O)[C@@H]1CCCN1C(=O)[C@H](CC(C)C)NC(=O)[C@H](Cc1ccc(O)cc1)NC(=O)[C@@H]1CCCN1C(=O)[C@@H]1CCCN1C(=O)[C@H](CCCCN)NC(=O)[C@H](CC(=O)O)NC(=O)[C@@H](N)C(C)C)C(=O)N[C@@H](Cc1ccc(O)cc1)C(=O)N[C@@H](CC(N)=O)C(=O)N[C@@H](CCCN=C(N)N)C(=O)NCC(=O)O` [VDKPPYLPRPRPPKRIYNRG] came in with a minimum inhibitory concentration (MIC) in [17] of 0.112 µM (≈ 0.27 µg/mL).
Turning to `CC[C@H](C)[C@H](NC(=O)[C@H](CC(C)C)NC(=O)[C@H](CO)NC(=O)[C@H](CC(C)C)NC(=O)[C@H](CC(C)C)NC(=O)[C@@H](N)CO)C(=O)N[C@@H](CCCN=C(N)N)C(=O)N[C@@H](CCCCN)C(=O)N[C@@H](CC(C)C)C(=O)N[C@@H](CC(C)C)C(=O)N[C@H](C(N)=O)[C@@H](C)O` [SLLSLIRKLLT], the MIC was 1.6 µM (≈ 2.01 µg/mL) in [8]; 1.6 µM (≈ 2.01 µg/mL) in the assay with Escherichia coli SBS 363; 0.4 µM (≈ 0.502 µg/mL) in the assay with Candida albicans MDM8; 0.4 µM (≈ 0.502 µg/mL) against Micrococcus luteus A270; ≥ 50 µM in assay [18].

A word on the MIC: it is the lowest concentration that inhibits growth of the organism.
